Measured values from the NIST ThermoML archive (doi:10.1021/je050183a).
Numbers after ± are expanded uncertainties.

Tests used:
[1] = 101 kPa, Liquid; for viscosity: Capillary tube (Ostwald / Ubbelohde) method; for speed of sound: Linear variable-path acoustic interferometer; for mass density: Pycnometric method
[2] = refractive index (Na D-line) (dimensionless); settings: 298.15 K; 101.33 kPa; Liquid; Standard Abbe refractometry
[3] = xn = mol fraction of the nth substance listed; settings: 101 kPa, Liquid; for viscosity: Capillary tube (Ostwald / Ubbelohde) method; for speed of sound: Linear variable-path acoustic interferometer; for mass density: Pycnometric method
[4] = refractive index (Na D-line) (dimensionless); xn = mol fraction of the nth substance listed; settings: 298.15 K, 101 kPa, Liquid, Standard Abbe refractometry

CC1OC(C)OC(C)O1 (configuration not stated) [2,4,6-trimethyl-1,3,5-trioxane]
viscosity ([1]; 288.15 K): 1.374 ± 0.018 mPa·s
speed of sound ([1]; 288.15 K): 1217.7 ± 2.7 m/s
mass density ([1]; 288.15 K): 999.69 ± 1.3 kg/m3
viscosity ([1]; 298.15 K): 1.107 ± 0.015 mPa·s
speed of sound ([1]; 298.15 K): 1174.5 ± 2.6 m/s
mass density ([1]; 298.15 K): 988.35 ± 1.3 kg/m3
refractive index [2]: 1.4029 ± 0.0008

CC1OC(C)OC(C)O1 (configuration not stated) [2,4,6-trimethyl-1,3,5-trioxane] + CC1COC(=O)O1
viscosity ([3]; 288.15 K, x1 = 0.091): 2.966 ± 0.038 mPa·s
viscosity ([3]; 288.15 K, x1 = 0.2019): 2.809 ± 0.036 mPa·s
viscosity ([3]; 288.15 K, x1 = 0.3007): 2.661 ± 0.035 mPa·s
viscosity ([3]; 288.15 K, x1 = 0.4055): 2.494 ± 0.033 mPa·s
viscosity ([3]; 288.15 K, x1 = 0.5011): 2.333 ± 0.031 mPa·s
viscosity ([3]; 288.15 K, x1 = 0.6022): 2.155 ± 0.028 mPa·s
viscosity ([3]; 288.15 K, x1 = 0.7006): 1.974 ± 0.026 mPa·s
viscosity ([3]; 288.15 K, x1 = 0.8028): 1.779 ± 0.023 mPa·s
viscosity ([3]; 288.15 K, x1 = 0.9027): 1.581 ± 0.021 mPa·s
viscosity ([3]; 288.15 K, x1 = 1): 1.374 ± 0.018 mPa·s
speed of sound ([3]; 288.15 K, x1 = 0.091): 1451.8 ± 2.8 m/s
speed of sound ([3]; 288.15 K, x1 = 0.2019): 1420.2 ± 2.8 m/s
speed of sound ([3]; 288.15 K, x1 = 0.3007): 1392.9 ± 2.8 m/s
speed of sound ([3]; 288.15 K, x1 = 0.4055): 1364.7 ± 2.8 m/s
speed of sound ([3]; 288.15 K, x1 = 0.5011): 1339.7 ± 2.8 m/s
speed of sound ([3]; 288.15 K, x1 = 0.6022): 1314 ± 2.7 m/s
speed of sound ([3]; 288.15 K, x1 = 0.7006): 1289.8 ± 2.7 m/s
speed of sound ([3]; 288.15 K, x1 = 0.8028): 1265.5 ± 2.7 m/s
speed of sound ([3]; 288.15 K, x1 = 0.9027): 1242.1 ± 2.7 m/s
speed of sound ([3]; 288.15 K, x1 = 1): 1217.7 ± 2.7 m/s
mass density ([3]; 288.15 K, x1 = 0.091): 1181.68 ± 1.5 kg/m3
mass density ([3]; 288.15 K, x1 = 0.2019): 1151.81 ± 1.5 kg/m3
mass density ([3]; 288.15 K, x1 = 0.3007): 1127.63 ± 1.4 kg/m3
mass density ([3]; 288.15 K, x1 = 0.4055): 1104.07 ± 1.4 kg/m3
mass density ([3]; 288.15 K, x1 = 0.5011): 1084.21 ± 1.4 kg/m3
mass density ([3]; 288.15 K, x1 = 0.6022): 1064.71 ± 1.4 kg/m3
mass density ([3]; 288.15 K, x1 = 0.7006): 1046.98 ± 1.4 kg/m3
mass density ([3]; 288.15 K, x1 = 0.8028): 1029.73 ± 1.4 kg/m3
mass density ([3]; 288.15 K, x1 = 0.9027): 1014 ± 1.4 kg/m3
mass density ([3]; 288.15 K, x1 = 1): 999.69 ± 1.4 kg/m3
viscosity ([3]; 298.15 K, x1 = 0.091): 2.386 ± 0.032 mPa·s
viscosity ([3]; 298.15 K, x1 = 0.2019): 2.245 ± 0.03 mPa·s
viscosity ([3]; 298.15 K, x1 = 0.3007): 2.116 ± 0.028 mPa·s
viscosity ([3]; 298.15 K, x1 = 0.4055): 1.977 ± 0.027 mPa·s
viscosity ([3]; 298.15 K, x1 = 0.5011): 1.846 ± 0.025 mPa·s
viscosity ([3]; 298.15 K, x1 = 0.6022): 1.705 ± 0.023 mPa·s
viscosity ([3]; 298.15 K, x1 = 0.7006): 1.563 ± 0.021 mPa·s
speed of sound ([3]; 298.15 K, x1 = 0.091): 1415 ± 2.8 m/s
speed of sound ([3]; 298.15 K, x1 = 0.2019): 1382.6 ± 2.8 m/s
speed of sound ([3]; 298.15 K, x1 = 0.3007): 1354.5 ± 2.8 m/s
speed of sound ([3]; 298.15 K, x1 = 0.4055): 1325.5 ± 2.7 m/s
speed of sound ([3]; 298.15 K, x1 = 0.5011): 1299.9 ± 2.7 m/s
speed of sound ([3]; 298.15 K, x1 = 0.6022): 1273.4 ± 2.7 m/s
speed of sound ([3]; 298.15 K, x1 = 0.7006): 1248.5 ± 2.7 m/s
mass density ([3]; 298.15 K, x1 = 0.091): 1170.78 ± 1.4 kg/m3
mass density ([3]; 298.15 K, x1 = 0.2019): 1141.1 ± 1.4 kg/m3
mass density ([3]; 298.15 K, x1 = 0.3007): 1117.02 ± 1.4 kg/m3
mass density ([3]; 298.15 K, x1 = 0.4055): 1093.5 ± 1.4 kg/m3
mass density ([3]; 298.15 K, x1 = 0.5011): 1073.63 ± 1.4 kg/m3
mass density ([3]; 298.15 K, x1 = 0.6022): 1054.05 ± 1.3 kg/m3
mass density ([3]; 298.15 K, x1 = 0.7006): 1036.19 ± 1.4 kg/m3
refractive index ([4]; x1 = 0.091): 1.4188 ± 0.0008
refractive index ([4]; x1 = 0.2019): 1.4172 ± 0.0008
refractive index ([4]; x1 = 0.3007): 1.4157 ± 0.0008
refractive index ([4]; x1 = 0.4055): 1.4142 ± 0.0008
refractive index ([4]; x1 = 0.5011): 1.4127 ± 0.0008
refractive index ([4]; x1 = 0.6022): 1.4111 ± 0.0008
refractive index ([4]; x1 = 0.7006): 1.4094 ± 0.0008

CC1COC(=O)O1 (configuration not stated) [4-methyl-1,3-dioxolan-2-one]
viscosity ([1]; 288.15 K): 3.086 ± 0.04 mPa·s
speed of sound ([1]; 288.15 K): 1478.4 ± 2.8 m/s
mass density ([1]; 288.15 K): 1208.67 ± 1.5 kg/m3
viscosity ([1]; 298.15 K): 2.499 ± 0.033 mPa·s
speed of sound ([1]; 298.15 K): 1442.3 ± 2.8 m/s
mass density ([1]; 298.15 K): 1197.58 ± 1.5 kg/m3
refractive index [2]: 1.4203 ± 0.0008

CC1COC(=O)O1 (configuration not stated) [4-methyl-1,3-dioxolan-2-one] + CC1OC(C)OC(C)O1
viscosity ([3]; 288.15 K, x2 = 0): 3.086 ± 0.04 mPa·s
speed of sound ([3]; 288.15 K, x2 = 0): 1478.4 ± 2.8 m/s
mass density ([3]; 288.15 K, x2 = 0): 1208.67 ± 1.5 kg/m3
viscosity ([3]; 298.15 K, x2 = 0): 2.499 ± 0.033 mPa·s
speed of sound ([3]; 298.15 K, x2 = 0): 1442.3 ± 2.8 m/s
mass density ([3]; 298.15 K, x2 = 0): 1197.58 ± 1.5 kg/m3
refractive index ([4]; x2 = 0): 1.4203 ± 0.0008

CCOC(=O)OCC [diethyl carbonate]
viscosity ([1]; 288.15 K): 0.868 ± 0.011 mPa·s
speed of sound ([1]; 288.15 K): 1225.6 ± 2.7 m/s
mass density ([1]; 288.15 K): 980.41 ± 1.3 kg/m3
viscosity ([1]; 298.15 K): 0.749 ± 0.01 mPa·s
speed of sound ([1]; 298.15 K): 1173.4 ± 2.7 m/s
mass density ([1]; 298.15 K): 969.15 ± 1.3 kg/m3
refractive index [2]: 1.383 ± 0.0008

CCOC(=O)OCC [diethyl carbonate] + CC1OC(C)OC(C)O1
viscosity ([3]; 288.15 K, x2 = 0): 0.868 ± 0.011 mPa·s
speed of sound ([3]; 288.15 K, x2 = 0): 1225.6 ± 2.7 m/s
mass density ([3]; 288.15 K, x2 = 0): 980.41 ± 1.3 kg/m3
viscosity ([3]; 298.15 K, x2 = 0): 0.749 ± 0.01 mPa·s
speed of sound ([3]; 298.15 K, x2 = 0): 1173.4 ± 2.7 m/s
mass density ([3]; 298.15 K, x2 = 0): 969.15 ± 1.3 kg/m3
refractive index ([4]; x2 = 0): 1.383 ± 0.0008

COC(=O)OC [dimethyl carbonate]
viscosity ([1]; 288.15 K): 0.647 ± 0.009 mPa·s
speed of sound ([1]; 288.15 K): 1242 ± 2.7 m/s
mass density ([1]; 288.15 K): 1076.43 ± 1.5 kg/m3
viscosity ([1]; 298.15 K): 0.579 ± 0.008 mPa·s
speed of sound ([1]; 298.15 K): 1197.4 ± 2.7 m/s
mass density ([1]; 298.15 K): 1063.1 ± 1.5 kg/m3
refractive index [2]: 1.366 ± 0.0008

COC(=O)OC [dimethyl carbonate] + CC1OC(C)OC(C)O1
viscosity ([3]; 288.15 K, x2 = 0): 0.647 ± 0.009 mPa·s
speed of sound ([3]; 288.15 K, x2 = 0): 1242 ± 2.7 m/s
mass density ([3]; 288.15 K, x2 = 0): 1076.43 ± 1.5 kg/m3
viscosity ([3]; 298.15 K, x2 = 0): 0.579 ± 0.008 mPa·s
speed of sound ([3]; 298.15 K, x2 = 0): 1197.4 ± 2.7 m/s
mass density ([3]; 298.15 K, x2 = 0): 1063.1 ± 1.5 kg/m3
refractive index ([4]; x2 = 0): 1.366 ± 0.0008
